Literature values in patent publication US20200236944A1, “DIURON-CONTAINING FRUIT THINNING AGENT” (ADAMA AGAN LTD., priority 2017, published 2020).

Key:
[1] = tested on: orange trees; details: 2500 ppm diuron
[2] = tested on: peach leaves; details: 100 ppm diuron

For `CN(C)C(=O)Nc1ccc(Cl)c(Cl)c1` [diuron, 3-(3,4-dichlorophenyl)-1,1-dimethylurea], the “Fruiting of orange trees” value [1] is given as “partially prevent the fruiting” and the “Photosynthesis rate for peaches” value [2] is given as “long-lasting and thus undesirably low”.
